Reference: US20230047788A1, “COMPOSITIONS COMPRISING 5-CHOLESTEN-3, 25-DIOL, 3-SULFATE (25HC3S) OR PHARMACEUTICALLY ACCEPTABLE SALT THEREOF AND AT LEAST ONE CYCLIC OLIGOSACCHARIDE” (Virginia Commonwealth University, priority 2016, published 2023)

Assay: Effect of phosphate and borate buffers on chemical stability (% remaining, impurity profile), osmolality, pH and appearance of 25HC3S 30 mg/mL in 250 mg/mL HPBCD at 80°C and 60°C
Format: physicochemical
Method: A total of six 25HC3S formulations at 30 mg/mL in 250 mg/mL of 2-hydroxypropyl beta cyclodextrin (HPBCD) containing 10, 20, 50 and 100 mM phosphate buffers at pH 7.5 to 8.1 and 10 and 50 mM borate buffers at pH 9.4 were prepared for the stability study. The chemical stability (measured as % remaining of 25HC3S) and physical stability (osmolality, pH and appearance) of the formulations were monitored under accelerated conditions for up to 7 days at 80° C. and up to 29 days at 60° C.
Two stock solutions of phosphate buffer at 100 and 200 mM at pH 7.4 and 7.3, respectively and one borate buffer at 100 mM at pH 9.3 were prepared (Tables 22A and 22B) and used for 250 mg/mL HPBCD vehicles preparation (Table 23).
Approximately 1200 mg each of 25HC3S was weighed into 40 mL volumetric flasks and diluted to volume with the six HPBCD vehicles containing 10-100 mM phosphate buffers or 10 and 50 mM borate buffers, respectively (Table 24). The final concentration of 25HC3S was 30 mg/mL (wt/volume, without adjusting for API purity). Aliquots of 2 mL of each formulation were filled into 2 mL glass vials, stoppered and sealed for stability sample set-up at 60° C. and 80° C. to study the effect of phosphate buffer (pH 7.5-8.1) and borate buffer (pH 9.4) at various buffer concentrations on the stability of the HPBCD formulations (Table 26).
A 0.5 mL of sample solution was transferred to a 25 mL volumetric flask and QS'ed with methanol/water=95/5 for 25HC3S concentration determination by HPLC. The % remaining of 25HC3S was calculated as follows: […]

[1] = 60° C., day 0, Phosphate 100 mM
[2] = 60° C., day 29, Phosphate 10 mM
[3] = 60° C., day 29, Phosphate 20 mM
[4] = 60° C., day 29, Phosphate 50 mM
[5] = 60° C., day 29, Phosphate 100 mM

## C[C@H](CCCC(C)(C)O)[C@H]1CC[C@H]2[C@@H]3CC=C4C[C@@H](OS(=O)(=O)[O-])CC[C@]4(C)[C@H]3CC[C@]12C.[Na+] [25HC3S, 5-cholesten-3, 25-diol, 3-sulfate]
60° C., day 0, Borate 50 mM
  pH: 9.40
60° C., day 0, Phosphate 10 mM
  25HC3S: 28.45 mg/mL
  % Peak Area 25-Hydroxy Cholesterol at RRT = 3.67: 0.0 % Peak Area
  % Peak Area 25HC3S: 99.8 % Peak Area
  % Peak Area Major Thermal Degradant at RRT = 2.64: 0.3 % Peak Area
  % Remaining of 25HC3S: 100.0%
  Osmolality: 273 mmol/kg
  pH: 8.09
60° C., day 0, Phosphate 20 mM
  25HC3S: 28.63 mg/mL
  % Peak Area 25-Hydroxy Cholesterol at RRT = 3.67: 0.0 % Peak Area
  % Peak Area 25HC3S: 99.7 % Peak Area
  % Peak Area Major Thermal Degradant at RRT = 2.64: 0.3 % Peak Area
  % Remaining of 25HC3S: 100.0%
  Osmolality: 311 mmol/kg
  pH: 7.81
60° C., day 0, Phosphate 50 mM
  25HC3S: 28.50 mg/mL
  % Peak Area 25-Hydroxy Cholesterol at RRT = 3.67: 0.0 % Peak Area
  % Peak Area 25HC3S: 99.7 % Peak Area
  % Peak Area Major Thermal Degradant at RRT = 2.64: 0.3 % Peak Area
  % Remaining of 25HC3S: 100.0%
  Osmolality: 415 mmol/kg
  pH: 7.63
[1]
  25HC3S: 28.58 mg/mL
  % Peak Area 25-Hydroxy Cholesterol at RRT = 3.67: 0.0 % Peak Area
  % Peak Area 25HC3S: 99.8 % Peak Area
  % Peak Area Major Thermal Degradant at RRT = 2.64: 0.3 % Peak Area
  % Remaining of 25HC3S: 100.0%
  Osmolality: 573 mmol/kg
  pH: 7.53
60° C., day 29, Borate 10 mM
  25HC3S: 26.55 mg/mL
  % Peak Area 25-Hydroxy Cholesterol at RRT = 3.67: 1.3 % Peak Area
  % Peak Area 25HC3S: 98.5 % Peak Area
  % Peak Area Major Thermal Degradant at RRT = 2.64: 0.3 % Peak Area
  % Remaining of 25HC3S: 92.9%
  Osmolality: 326 mmol/kg
  pH: 8.90
60° C., day 29, Borate 50 mM
  25HC3S: 27.03 mg/mL
  % Peak Area 25-Hydroxy Cholesterol at RRT = 3.67: 1.3 % Peak Area
  % Peak Area 25HC3S: 98.5 % Peak Area
  % Peak Area Major Thermal Degradant at RRT = 2.64: 0.3 % Peak Area
  % Remaining of 25HC3S: 94.8%
  Osmolality: 541 mmol/kg
  pH: 9.19
[2]
  25HC3S: 26.65 mg/mL
  % Peak Area 25-Hydroxy Cholesterol at RRT = 3.67: 1.4 % Peak Area
  % Peak Area 25HC3S: 98.3 % Peak Area
  % Peak Area Major Thermal Degradant at RRT = 2.64: 0.3 % Peak Area
  % Remaining of 25HC3S: 93.7%
  Osmolality: 281 mmol/kg
  pH: 7.04
[3]
  25HC3S: 26.78 mg/mL
  % Peak Area 25-Hydroxy Cholesterol at RRT = 3.67: 1.4 % Peak Area
  % Peak Area 25HC3S: 98.3 % Peak Area
  % Peak Area Major Thermal Degradant at RRT = 2.64: 0.3 % Peak Area
  % Remaining of 25HC3S: 93.5%
  Osmolality: 322 mmol/kg
  pH: 7.17
[4]
  25HC3S: 26.63 mg/mL
  % Peak Area 25-Hydroxy Cholesterol at RRT = 3.67: 1.4 % Peak Area
  % Peak Area 25HC3S: 98.3 % Peak Area
  % Peak Area Major Thermal Degradant at RRT = 2.64: 0.3 % Peak Area
  % Remaining of 25HC3S: 93.4%
  Osmolality: 430 mmol/kg
  pH: 7.28
[5]
  25HC3S: 26.63 mg/mL
  % Peak Area 25-Hydroxy Cholesterol at RRT = 3.67: 1.4 % Peak Area
  % Peak Area 25HC3S: 98.4 % Peak Area
  % Peak Area Major Thermal Degradant at RRT = 2.64: 0.3 % Peak Area
  % Remaining of 25HC3S: 93.2%
  Osmolality: 592 mmol/kg
  pH: 7.28
60° C., days 0 and 29, Borate 10 and 50 mM, merged cell wrapped over r16-r18: Clear colorless solution
  Appearance: Clear
60° C., days 0 and 29, Phosphate 10, 20, 50 and 100 mM, merged cell wrapped over r8-r10: Clear colorless solution
  Appearance: Clear
80° C., day 0, Borate 10 mM
  % Peak Area 25-Hydroxy Cholesterol at RRT = 3.67: 0.0 % Peak Area
  % Peak Area 25HC3S: 99.7 % Peak Area
  % Peak Area Major Thermal Degradant at RRT = 2.64: 0.3 % Peak Area
80° C., day 0, Borate 50 mM
  % Peak Area 25-Hydroxy Cholesterol at RRT = 3.67: 0.0 % Peak Area
  % Peak Area 25HC3S: 99.9 % Peak Area
  % Peak Area Major Thermal Degradant at RRT = 2.64: 0.2 % Peak Area
80° C., day 0, Phosphate 10 mM
  % Peak Area 25-Hydroxy Cholesterol at RRT = 3.67: 0.0 % Peak Area
  % Peak Area 25HC3S: 99.8 % Peak Area
